ChEMBL document CHEMBL1137869 (Bioorg Med Chem Lett, 2004)
pIC50: −log10 of the molar value.

Key:
[1] = molecular target: T1, Platelet-derived growth factor receptor beta (Homo sapiens, UniProt P09619); test: In vitro inhibition of Platelet derived growth factor receptor beta autophosphorylation in MG-63 cells with 45% human plasma; type: cell-based
[2] = molecular target: T1, Platelet-derived growth factor receptor beta; test: In vitro inhibition of Platelet derived growth factor receptor beta autophosphorylation in MG-63 cells without plasma; type: cell-based
[3] = Inhibition of PDGFR-beta/Flt-3 chimeric receptor autophosphorylation in CHO cells; type: cell-based
[4] = Inhibition of PDGFR-beta/c-Kit chimeric receptor autophosphorylation in CHO cells; type: cell-based
[5] = molecular target: T1, Platelet-derived growth factor receptor beta; test: Inhibition of Platelet derived growth factor receptor beta autophosphorylation in CHO cells; type: cell-based
[6] = Area under curve was determined in rat by peroral dose at 30 mg/kg; type: ADME, organism-based; set-up: dose 30 mg/kg, route oral; settings: in vivo, po
[7] = Plasma half life was determined in dog by iv/po dose at 8.09 mg/kg; type: ADME, organism-based, Canis lupus familiaris; set-up: dose 8.09 mg/kg
[8] = Plasma half life was determined in monkey by iv/po dose at 10 mg/kg; type: ADME, organism-based; set-up: dose 10 mg/kg; settings: cercopithecidae
[9] = Maximum concentration was determined in rat by iv/po dose at 30 mg/kg; type: ADME, organism-based; set-up: dose 30 mg/kg; settings: in vivo
[10] = Maximum concentration was determined in dog by iv/po dose at 8.09 mg/kg; type: ADME, organism-based, Canis lupus familiaris; set-up: dose 8.09 mg/kg; settings: in vivo
[11] = Maximum concentration was determined in monkey by iv/po dose at 10 mg/kg; type: ADME, organism-based; set-up: dose 10 mg/kg; settings: cercopithecidae, in vivo
[12] = Bioavailability in rat (dose 30 mg/kg i.v./p.o.); type: ADME, organism-based; settings: in vivo, po
[13] = Percent bioavailability was determined in dog by iv/po dose at 8.09 mg/kg; type: ADME, organism-based, Canis lupus familiaris; settings: in vivo
[14] = Plasma half life was determined in rat by iv/po dose at 30 mg/kg; type: ADME, organism-based; set-up: dose 30 mg/kg

T1 sequence (P09619 whole entry): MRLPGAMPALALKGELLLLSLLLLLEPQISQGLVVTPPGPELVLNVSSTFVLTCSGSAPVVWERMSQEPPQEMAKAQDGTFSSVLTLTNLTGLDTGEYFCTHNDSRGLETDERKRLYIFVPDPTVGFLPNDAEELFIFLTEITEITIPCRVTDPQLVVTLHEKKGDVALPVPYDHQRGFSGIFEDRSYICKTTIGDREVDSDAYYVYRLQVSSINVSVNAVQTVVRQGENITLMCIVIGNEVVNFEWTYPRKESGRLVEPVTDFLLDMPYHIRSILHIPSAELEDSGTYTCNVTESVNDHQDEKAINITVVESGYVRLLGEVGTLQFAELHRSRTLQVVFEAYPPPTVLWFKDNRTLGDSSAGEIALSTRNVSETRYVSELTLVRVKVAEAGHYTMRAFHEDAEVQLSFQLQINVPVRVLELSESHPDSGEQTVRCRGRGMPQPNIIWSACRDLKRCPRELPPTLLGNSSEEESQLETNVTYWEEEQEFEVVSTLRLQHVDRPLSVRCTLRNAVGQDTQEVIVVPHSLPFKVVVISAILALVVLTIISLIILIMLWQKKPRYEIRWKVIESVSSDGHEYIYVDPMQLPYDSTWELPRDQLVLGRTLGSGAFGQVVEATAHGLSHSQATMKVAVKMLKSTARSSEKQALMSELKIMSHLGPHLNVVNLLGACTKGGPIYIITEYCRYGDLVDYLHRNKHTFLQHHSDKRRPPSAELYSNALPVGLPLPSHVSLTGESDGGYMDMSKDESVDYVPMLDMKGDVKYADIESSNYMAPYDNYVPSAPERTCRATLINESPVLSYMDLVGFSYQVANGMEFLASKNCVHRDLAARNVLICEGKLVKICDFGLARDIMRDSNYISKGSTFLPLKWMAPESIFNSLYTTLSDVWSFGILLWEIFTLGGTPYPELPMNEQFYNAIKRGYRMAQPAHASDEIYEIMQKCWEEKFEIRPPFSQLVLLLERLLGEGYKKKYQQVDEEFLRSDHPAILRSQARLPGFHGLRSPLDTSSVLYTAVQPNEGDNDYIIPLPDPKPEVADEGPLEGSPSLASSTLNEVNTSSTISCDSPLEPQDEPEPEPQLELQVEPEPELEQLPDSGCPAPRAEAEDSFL

## COc1cc2c(N3CCN(/C(S)=N\c4ccsc4)CC3)ncnc2cc1OCCN1CCCCC1
[1]
  pIC50: 6.13
[2]
  pIC50: 7.00

## COc1cc2c(N3CCN(C(=S)NCc4ccc(-c5ccncc5)cc4)CC3)ncnc2cc1OCCN1CCCCC1
[1]
  pIC50: 5.30
[2]
  pIC50: 5.02

## COc1cc2c(N3CCN(/C(S)=N\Cc4ccc(C(F)(F)F)nc4Cl)CC3)ncnc2cc1OCCN1CCCCC1
[1]
  pIC50: 5.85
[2]
  pIC50: 5.95
[3]
  pIC50: 5.17
[4]
  pIC50: 6.10
[5]
  pIC50: 7.00

## COc1cc2c(N3CCN(/C(S)=N\Cc4ccc5c(c4)OCO5)CC3)ncnc2cc1OCCN1CCCC1
[1]
  pIC50: 6.80
[2]
  pIC50: 8.30

## COc1cc2c(N3CCN(C(=S)Nc4ccc(Cl)nc4)CC3)ncnc2cc1OCCN1CCCCC1
[1]
  pIC50: 6.29
[2]
  pIC50: 6.05
[3]
  pIC50: 4.70
[4]
  pIC50: 6.30
[5]
  pIC50: 6.44

## COc1cc2c(N3CCN(/C(S)=N\c4ccc(C(F)(F)F)nc4)CC3)ncnc2cc1OCCN1CCCCC1
[1]
  pIC50: 5.97
[2]
  pIC50: 5.39

## COc1cc2c(N3CCN(/C(S)=N\Cc4ccc(C)o4)CC3)ncnc2cc1OCCCN1CCCCC1
[1]
  pIC50: 7.05
[2]
  pIC50: 7.10
[3]
  pIC50: < 4.52
[4]
  pIC50: 7.30
[5]
  pIC50: 7.10

## COc1cc2c(N3CCN(C(=S)Nc4ccncc4)CC3)ncnc2cc1OCCCN1CCCCC1
[1]
  pIC50: 7.22
[2]
  pIC50: 6.66
[3]
  pIC50: 4.62
[4]
  pIC50: 5.73
[5]
  pIC50: 6.24

## COc1cc2c(N3CCN(/C(=N\Cc4ccc(C(C)C)cc4)NC#N)CC3)ncnc2cc1OCCCN1CCCCC1
[1]
  pIC50: 6.01
[2]
  pIC50: 6.04

## COc1cc2c(N3CCN(C(=S)NCc4ccc5c(c4)OCO5)CC3)ncnc2cc1OCCN1CCCCC1
[6]
  AUC: 69 µg/h/mL
[1]
  pIC50: 6.92
[2]
  pIC50: 7.70
[3]
  pIC50: 5.54
[4]
  pIC50: 7.22
[7]
  half-life: 942 min
[8]
  half-life: 555 min
[9]
  Cmax: 146 ng/mL
[10]
  Cmax: 456 ng/mL
[11]
  Cmax: 92.5 ng/mL
[12]
  bioavailability: 39.1%
[13]
  bioavailability: 102%
[14]
  half-life: 1600 min
[5]
  pIC50: 7.40

## COc1cc2c(N3CCN(C(=NC#N)Nc4ccncc4)CC3)ncnc2cc1OCCCN1CCCCC1
[1]
  pIC50: 4.77
[2]
  pIC50: 4.50

## COc1cc2c(N3CCN(/C(S)=N\Cc4ccc(C)nc4)CC3)ncnc2cc1OCCCN1CCCCC1
[1]
  pIC50: 7.05
[2]
  pIC50: 6.85
[3]
  pIC50: < 4.52
[4]
  pIC50: 6.62
[5]
  pIC50: 6.85

## COc1cc2c(N3CCN(C(=S)NCc4ccc(C(F)(F)F)nc4)CC3)ncnc2cc1OCCN1CCCCC1
[1]
  pIC50: 7.05
[2]
  pIC50: 5.99
[3]
  pIC50: < 4.52
[4]
  pIC50: 6.62
[5]
  pIC50: 6.82

## COc1cc2c(N3CCN(/C(S)=N\c4ccc(Cl)nn4)CC3)ncnc2cc1OCCN1CCCCC1
[1]
  pIC50: 5.88
[2]
  pIC50: 6.38

## COc1cc2c(N3CCN(C(=S)Nc4cccnc4)CC3)ncnc2cc1OCCN1CCCCC1
[1]
  pIC50: 5.30
[2]
  pIC50: 5.42

## COc1cc2c(N3CCN(C(=S)NCc4ccc(-c5cccnc5)cc4)CC3)ncnc2cc1OCCN1CCCCC1
[1]
  pIC50: 5.28
[2]
  pIC50: 4.83

## COc1cc2c(N3CCN(C(=S)NCc4ccc(C)nc4Cl)CC3)ncnc2cc1OCCN1CCCCC1
[1]
  pIC50: 6.46
[2]
  pIC50: 5.94

## COc1cc2c(N3CCN(/C(S)=N\Cc4cccnc4)CC3)ncnc2cc1OCCCN1CCCCC1
[1]
  pIC50: 6.49
[2]
  pIC50: 7.30

## COc1cc2c(N3CCN(/C(S)=N\Cc4ccnc(Cl)c4)CC3)ncnc2cc1OCCN1CCCCC1
[1]
  pIC50: 6.11
[2]
  pIC50: 5.75

## COc1cc2c(N3CCN(C(=S)NCc4ccc(-c5ccccc5)nc4)CC3)c(C#N)cnc2cc1OCCCN1CCCCC1
[1]
  pIC50: 7.00
[2]
  pIC50: 8.00

## COc1cc2c(N3CCN(C(=S)Nc4ccc(-c5ccccn5)cc4)CC3)ncnc2cc1OCCCN1CCCCC1
[1]
  pIC50: 7.00
[2]
  pIC50: 6.66

## COc1cc2c(N3CCN(C(=S)NCc4cnc(C)cn4)CC3)ncnc2cc1OCCCN1CCCCC1
[1]
  pIC50: 7.30
[2]
  pIC50: 6.85
[3]
  pIC50: < 4.52
[4]
  pIC50: 5.82
[5]
  pIC50: 5.87

## COc1cc2c(N3CCN(/C(=N\Cc4ccc(C(F)(F)F)nc4)NC#N)CC3)ncnc2cc1OCCCN1CCCCC1
[1]
  pIC50: 5.66
[2]
  pIC50: 5.47

## COc1cc2c(N3CCN(/C(=N\c4ccc(-c5ccccn5)cc4)NC#N)CC3)ncnc2cc1OCCCN1CCCCC1
[1]
  pIC50: 6.43
[2]
  pIC50: 6.38

## COc1cc2c(N3CCN(C(=S)Nc4ccncc4)CC3)c(C#N)cnc2cc1OCCCN1CCCCC1
[1]
  pIC50: 6.89
[2]
  pIC50: 6.62

## COc1cc2c(N3CCN(/C(S)=N\Cc4ccco4)CC3)ncnc2cc1OCCN1CCCC1
[1]
  pIC50: 6.51
[2]
  pIC50: 6.80
[3]
  pIC50: < 4.52
[4]
  pIC50: 5.74
[5]
  pIC50: 6.54

## COc1cc2c(N3CCN(C(=S)NCc4ccncc4)CC3)ncnc2cc1OCCCN1CCCCC1
[1]
  pIC50: 5.61
[2]
  pIC50: 4.87

## COc1cc2c(N3CCN(C(=S)NCc4ccc(-c5ccccn5)cc4)CC3)ncnc2cc1OCCN1CCCCC1
[1]
  pIC50: 5.83
[2]
  pIC50: 5.67
